Reference: patent publication US20250360145A1, “CSF-1R INHIBITORS AND USES THEREOF” (Myrobalan Therapeutics, Inc., priority 2022, published 2025)
pEC50, pIC50: −log10 of the molar value. Read-outs that look alike come from different tables or passages of the source.

Columns and labels:
CSF-1R = CSF-1R (Homo sapiens (Human), UniProt P07333); experiment: Biochemical HTRF kinase assay, CSF-1R; conditions: Table 2; recombinant human CSF-1R;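 note: enzyme incubated with inhibitor plus a substrate and ATP mix for one hour at room temperature before HTRF detection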
Sequence of CSF-1R (P07333 20-972): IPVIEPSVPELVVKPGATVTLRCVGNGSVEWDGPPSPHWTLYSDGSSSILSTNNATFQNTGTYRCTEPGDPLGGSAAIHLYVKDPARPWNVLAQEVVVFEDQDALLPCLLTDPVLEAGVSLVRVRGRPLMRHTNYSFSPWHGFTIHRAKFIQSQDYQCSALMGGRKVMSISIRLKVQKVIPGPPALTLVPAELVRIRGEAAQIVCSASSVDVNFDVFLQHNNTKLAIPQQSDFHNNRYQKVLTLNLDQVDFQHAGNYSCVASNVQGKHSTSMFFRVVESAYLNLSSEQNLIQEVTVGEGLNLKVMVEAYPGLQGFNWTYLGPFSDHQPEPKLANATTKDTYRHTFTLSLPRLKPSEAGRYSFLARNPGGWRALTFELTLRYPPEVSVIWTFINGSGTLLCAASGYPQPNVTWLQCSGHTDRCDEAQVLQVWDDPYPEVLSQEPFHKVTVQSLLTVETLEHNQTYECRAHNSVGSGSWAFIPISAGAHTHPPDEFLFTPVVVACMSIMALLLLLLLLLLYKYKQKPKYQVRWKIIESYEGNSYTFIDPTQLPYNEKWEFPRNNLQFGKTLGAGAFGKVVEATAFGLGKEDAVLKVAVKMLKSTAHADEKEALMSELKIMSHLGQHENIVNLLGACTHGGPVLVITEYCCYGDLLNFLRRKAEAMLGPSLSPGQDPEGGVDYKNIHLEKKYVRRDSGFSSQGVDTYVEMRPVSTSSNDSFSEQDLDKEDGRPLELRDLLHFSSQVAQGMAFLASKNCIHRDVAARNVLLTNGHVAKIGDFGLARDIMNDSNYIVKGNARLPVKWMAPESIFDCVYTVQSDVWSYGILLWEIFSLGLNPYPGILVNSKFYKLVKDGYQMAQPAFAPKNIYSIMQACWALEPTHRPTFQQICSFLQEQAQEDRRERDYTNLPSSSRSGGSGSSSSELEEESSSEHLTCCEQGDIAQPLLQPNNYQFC

[1] = tested on: Ba/F3_CSF-1R (stably expressing human CSF-1R kinase); experiment: Cell proliferation assay, Ba/F3_CSF-1R; type: cell-based; conditions: for pEC50: Ba/F3_CSF-1R cells, 72 hours treatment, read-out: CSF-1R BaF3 EC50; for EC50: read-out: CSF-1R BaF3 EC50 (nM)
EOC2 cell = experiment: Cell proliferation assay, EOC2; type: cell-based, mouse; conditions: for pEC50: EOC2 cells, 72 hours treatment, read-out: ECO2 EC50

SMILES	pIC50 (CSF-1R)	pEC50 ([1]; BaF3, 72 h)	pEC50 (EOC2 cell; Mus musculus, 72 h)	pEC50 (EOC2 cell)	pEC50 [1]	EC50 ([1]; BaF3, 72 h)	EC50 (EOC2 cell; Mus musculus, 72 h, read-out: ECO2 EC50 (nM))
COc1cnc2c(Cc3cnc(OCc4cccc(N5CCC5)n4)c(OC)c3)ccnc2c1 [Example 118]	8.44	7.01	7.46				
COc1cnc2c(Cc3cnc(OCc4cnc(C)s4)c(OC)c3)ccnc2c1 [Example 42]	7.83	6.29	6.39				
COc1cnc2c(Cc3cnc(OCc4cc5n(n4)C(C)COC5)c(OC)c3)ccnc2c1 (stereo not drawn) [Example 103]	8.72	7.38	7.59				
COc1ccc(COc2ncc(Cc3c(F)cnc4cc(OC)cnc34)cc2OC)nc1 [Example 146]	6.68	< 6.00	< 6.00				
COc1ccc(COc2ccc(Cc3ccnc4ccc(F)cc34)cc2OC)cc1 [Example 24]	7.60	6.75	6.62				
COc1ccc2c(Cc3ccc(OCc4ccc5nccn5c4)c(OC)c3)ccnc2c1 [Example 7]	8.28	6.52	6.48				
COc1cnc2c(Cc3cc(OC)c4nc(N5CCC(OC)CC5)ncc4c3)ccnc2c1 [Example 150]	6.02	< 6.00	< 6.00				
COc1ccc2c(Cc3ccc(OCc4ccc(C(F)(F)F)cc4)c(OC)c3)ccnc2c1 [Example 14]	6.93	6.80	6.88				
COc1cnc2c(Cc3cnc(OCc4ccn(C)n4)c(OC)c3)ccnc2c1 [Example 48]	8.09	6.23	6.53				
COc1ccc(COc2ncc(Cc3ccnc4cc(OC)cnc34)cc2OC(F)F)nc1 [Example 68, 8-((5-(difluoromethoxy)-6-((5-methoxypyridin-2-yl)methoxy)pyridin-3-yl)methyl)-3-methoxy-1,5-naphthyridine]	7.00	< 6.00	< 6.00				
COc1cnc2c(Cc3cnc(OCc4cnc5c(c4)CCC5OC)c(OC)c3)ccnc2c1 (stereo not drawn) [Example 92]	8.74	7.17	7.59				
COc1cnc2c(Cc3ccc4nc([C@H]5CC[C@@H](OC)CC5)cnc4c3)ccnc2c1 [Example 154]	7.54	6.48		6.70			
COc1cnc2c(Cc3cnc(OCc4cn5c(n4)CN(C)CC5)c(OC)c3)ccnc2c1 [Example 94]	7.85	< 6.00	< 6.00				
COc1cnc2c(Cc3cnc(OCc4cc(C5COC5)no4)c(OC)c3)ccnc2c1 [Example 90]	7.76	6.55	6.81				
COc1cnc2c(Cc3cnc(OCc4cc5n(n4)[C@H]4C[C@H]4C5)c(OC)c3)ccnc2c1 [Example 111]	8.66	7.46	7.76				
COc1ccc(COc2ncc(Cc3ccnc4cc(OC)ncc34)cc2OC)nc1 [Example 52]	7.30	6.32	6.68				
COc1ccc2c(Cc3ccc(OCc4ccc5ccnn5c4)c(OC)c3)ccnc2c1 [Example 20]	7.96	6.87	6.89				
COc1cnc2c(Cc3cnc(OCc4ccc(C5CC5)cn4)c(OC(F)F)c3)ccnc2c1 [Example 69]	6.69	< 6.00	< 6.00				
COc1cnc2c(Cc3cnc(OCc4cnc5c(c4)CC[C@H]5OC)c(OC)c3)ccnc2c1 (stereo in doubt) [Example 104]	8.62		7.39		7.27		
COCc1cc(COc2ncc(Cc3ccnc4cc(OC)cnc34)cc2OC)nn1C [Example 96]	7.79	6.63	6.72				
COc1cnc2c(Cc3cnc(OCc4cccc(N(C)C(C)=O)n4)c(OC)c3)ccnc2c1 [Example 123]	7.28	6.89	7.11				

SMILES	pIC50 (CSF-1R)	pEC50 ([1]; BaF3, 72 h)	pEC50 (EOC2 cell; Mus musculus, 72 h)	pEC50 (EOC2 cell)	pEC50 [1]	EC50 ([1]; BaF3, 72 h)	EC50 (EOC2 cell; Mus musculus, 72 h, read-out: ECO2 EC50 (nM))
COc1ccc(COc2ccc(Cc3ncnc4cc(OC)ccc34)cc2OC)cc1 [Example 5]	7.68	6.58	6.51				
COc1cnc2c(Cc3cnc(OCc4cccn(C)c4=O)c(OC)c3)ccnc2c1 [Example 124]	6.50	< 6.00	6.35				
COc1ccc(COc2ncc(Cc3ccnc4cc(-c5cnc(C)s5)cnc34)cc2OC)nc1 [Example 138, 5-(8-((5-methoxy-6-((5-methoxypyridin-2-yl)methoxy)pyridin-3-yl)methyl)-1,5-naphthyridin-3-yl)-2-methylthiazole]	7.90		8.66			1.8 nM	
COCc1ccc(COc2ncc(Cc3ccnc4cc(OC)cnc34)cc2OC)nc1 [Example 71]	7.60	6.45	6.77				
COc1cnc2c(Cc3cnc(OCc4cc(C)no4)c(OC)c3)ccnc2c1 [Example 46, 5-(((3-methoxy-5-((7-methoxy-1,5-naphthyridin-4-yl)methyl)pyridin-2-yl)oxy)methyl)-3-methylisoxazole]	7.65	6.48	6.70				
COc1cnc2c(Cc3cnc(OCc4ccc(C5CN(C)C5)cn4)c(OC)c3)ccnc2c1 [Example 89]	6.54	< 6.00	< 6.00				
COc1cnc2c(Cc3cnc(OCc4cc5n(n4)CCN(C)C5)c(OC)c3)ccnc2c1 [Example 75]	7.49	6.02	6.35				
COc1cnc2c(Cc3cnc(OCc4cc(C(F)(F)F)n(C)n4)c(OC)c3)ccnc2c1 [Example 97]	8.70	7.47	7.08				
COc1ccc2c(Cc3ccc(OCc4cc(C)on4)c(OC)c3)ccnc2c1 [Example 36]	7.40	6.20	6.31				
COc1ccc2c(Cc3ccc(OCc4cn5ccccc5n4)c(OC)c3)ccnc2c1 [Example 18, 4-(4-(imidazo[1,2-a]pyridin-2-ylmethoxy)-3-methoxybenzyl)-7-methoxy quinoline]	8.03	6.71	6.57				
COc1ccc2c(Cc3ccc(OCc4ccc5c(c4)OC(F)(F)O5)c(OC)c3)ccnc2c1 [Example 33]	6.69	6.66	7.05				
COc1ccc2c(Cc3ccc(OCc4ccc5ncnn5c4)c(OC)c3)ccnc2c1 [Example 21]	7.90	6.29	6.31				
[2H]C([2H])(c1cnc(OCc2ccc(OC)cn2)c(OC)c1)c1ccnc2cc(OC)cnc12 [Example 95]	8.47	7.37	7.27				
COc1ccc(COc2ncc(Oc3ccnc4cc(OC)cnc34)cc2OC)nc1 [Example 54, 3-methoxy-8-((5-methoxy-6-((5-methoxypyridin-2-yl)methoxy)pyridin-3-yl)oxy)-1,5-naphthyridine]	7.06	6.10	6.50				
COc1ccc2c(Cc3ccc(OCc4cnc(C)s4)c(OC)c3)ccnc2c1 [Example 35]	7.79	6.35	6.41				
COc1ccc(COc2ccc(Cc3ccnc4cc(OC)cnc34)cn2)nc1 [Example 151, 3-methoxy-8-((6-((5-methoxypyridin-2-yl)methoxy)pyridin-3-yl)methyl)-1,5-naphthyridine]	7.65					412 nM	280 nM
COc1ccc(COc2ncc(Cc3ccnc4cc(OC)cnc34)cc2OC)cc1 [Example 38]	8.68	6.68	7.39				
COc1cnc2c(Cc3cnc(OCc4cc(F)cnc4OC)c(OC)c3)ccnc2c1 [Example 41]	7.40	< 6.00	< 6.00				
COc1ccc(COc2ncc(Cc3ccnc4cc(C(=O)N(C)C)cnc34)cc2OC)nc1 [Example 133]	7.23	6.35	6.51				
COc1cnc2c(Cc3cnc(OCc4cc(C)on4)c(OC)c3)ccnc2c1 [Example 51]	6.98	6.23	6.65				
COc1cnc2c(Cc3cnc(OCc4ccc(CN(C)C)cn4)c(OC)c3)ccnc2c1 [Example 85]	6.96	< 6.00	< 6.00				
